Experimental findings from ChEMBL document CHEMBL5465560, “Selectivity Literature for EUbOPEN Chemogenomic Library” (2024) are described below.

Structures are written as SMILES.

The target of experiment [1] is Protein arginine N-methyltransferase 6 (Homo sapiens, UniProt Q96LA8). Put plainly: Selectivity interaction (Methyltransferase screen (radiometric assays, panel of 8 PRMTs, 21 protein lysine methyltransferases, 3 DNA methyltransferases, and one RNA methyltransferase)) EUB0000271b PRMT6.
In experiment [2] the target is T1, Histone-lysine N-methyltransferase NSD3 (Homo sapiens) (UniProt Q9BZ95).
T1 sequence (whole entry): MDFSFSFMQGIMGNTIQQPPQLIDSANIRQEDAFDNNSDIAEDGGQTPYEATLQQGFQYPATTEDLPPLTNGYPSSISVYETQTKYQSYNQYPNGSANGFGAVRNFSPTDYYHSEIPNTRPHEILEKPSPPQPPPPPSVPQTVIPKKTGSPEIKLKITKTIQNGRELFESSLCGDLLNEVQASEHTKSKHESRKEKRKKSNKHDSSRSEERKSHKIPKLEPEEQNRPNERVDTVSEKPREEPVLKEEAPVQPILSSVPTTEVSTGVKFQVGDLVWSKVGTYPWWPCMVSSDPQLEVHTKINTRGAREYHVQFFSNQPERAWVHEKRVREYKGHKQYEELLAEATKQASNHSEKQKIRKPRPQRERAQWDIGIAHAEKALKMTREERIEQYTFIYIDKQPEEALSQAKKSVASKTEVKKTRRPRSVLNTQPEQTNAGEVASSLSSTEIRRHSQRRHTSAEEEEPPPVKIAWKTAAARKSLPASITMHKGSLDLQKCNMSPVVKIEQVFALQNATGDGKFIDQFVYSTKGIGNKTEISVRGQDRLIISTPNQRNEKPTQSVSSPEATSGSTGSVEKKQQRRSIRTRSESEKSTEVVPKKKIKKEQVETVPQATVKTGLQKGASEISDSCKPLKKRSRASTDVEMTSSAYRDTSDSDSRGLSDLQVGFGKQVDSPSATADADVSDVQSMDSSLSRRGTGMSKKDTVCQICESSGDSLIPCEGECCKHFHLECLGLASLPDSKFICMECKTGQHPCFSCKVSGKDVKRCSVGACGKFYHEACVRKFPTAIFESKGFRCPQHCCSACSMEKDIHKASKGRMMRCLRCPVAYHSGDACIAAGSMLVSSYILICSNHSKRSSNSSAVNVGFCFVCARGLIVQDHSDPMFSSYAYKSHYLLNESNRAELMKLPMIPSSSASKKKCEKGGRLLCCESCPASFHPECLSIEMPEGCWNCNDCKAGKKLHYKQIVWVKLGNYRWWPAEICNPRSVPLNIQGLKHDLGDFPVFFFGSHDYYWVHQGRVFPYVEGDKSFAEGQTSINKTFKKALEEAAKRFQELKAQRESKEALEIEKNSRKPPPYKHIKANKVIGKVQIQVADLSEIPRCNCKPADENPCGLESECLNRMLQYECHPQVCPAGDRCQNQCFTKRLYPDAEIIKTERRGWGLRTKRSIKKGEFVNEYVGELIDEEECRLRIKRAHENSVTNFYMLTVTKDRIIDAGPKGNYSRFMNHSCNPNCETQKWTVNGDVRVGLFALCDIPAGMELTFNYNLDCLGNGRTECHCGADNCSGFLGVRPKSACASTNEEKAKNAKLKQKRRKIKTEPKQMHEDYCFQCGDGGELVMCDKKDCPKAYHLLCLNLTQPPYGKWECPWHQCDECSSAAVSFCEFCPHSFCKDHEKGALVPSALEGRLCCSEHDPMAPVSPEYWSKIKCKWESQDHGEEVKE
The conditions noted are these: at 10 µM.

In experiment [3] the target is Ribosomal protein S6 kinase alpha-3 (Homo sapiens, UniProt P51812). Put plainly: Selectivity interaction (ActivX KiNativ screen (ex vivo kinase selectivity in human PBMCs)) EUB0001619a RPS6KA3. The experiment is classed as cell-based. The following applies: PBMC, at 1 µM.
The target in experiment [4] is Serine/threonine-protein kinase 16 (Homo sapiens, UniProt O75716). Kind of experiment: Selectivity interaction (ActivX KiNativ screen (ex vivo kinase selectivity in human PBMCs)) EUB0001619a STK16. The experiment is classed as cell-based. The following applies: PBMC, at 1 µM.
Experiment [5] addresses Tyrosine-protein kinase JAK1 (Homo sapiens, UniProt P23458). Put plainly: Selectivity interaction (ActivX KiNativ screen (kinase selectivity in THP-1 cell lysates)) EUB0000639a JAK1. The experiment is classed as subcellular. The conditions noted are these: lysate, at 0.2 µM.
The target in experiment [6] is Serine/threonine-protein kinase tousled-like 2 (Homo sapiens) (UniProt Q86UE8). Put plainly: Selectivity interaction (ProQinase) EUB0000171b TLK2.
The target in experiment [7] is Serine/threonine-protein kinase 35 (Homo sapiens) (UniProt Q8TDR2). Kind of experiment: Selectivity interaction (KinomeScan (DiscoverX)) EUB0000092b STK35. The conditions noted are these: at 10 µM.
The target of experiment [8] is Ephrin type-A receptor 5 (Homo sapiens) (UniProt P54756). Kind of experiment: Selectivity interaction (Upstate Kinase Profiler service (Millipore)) EUB0000056c EPHA5. The conditions noted are these: at 1 µM.
The target in experiment [9] is T2, Tyrosine-protein kinase TXK (Homo sapiens) (UniProt P42681).
T2 sequence (whole entry): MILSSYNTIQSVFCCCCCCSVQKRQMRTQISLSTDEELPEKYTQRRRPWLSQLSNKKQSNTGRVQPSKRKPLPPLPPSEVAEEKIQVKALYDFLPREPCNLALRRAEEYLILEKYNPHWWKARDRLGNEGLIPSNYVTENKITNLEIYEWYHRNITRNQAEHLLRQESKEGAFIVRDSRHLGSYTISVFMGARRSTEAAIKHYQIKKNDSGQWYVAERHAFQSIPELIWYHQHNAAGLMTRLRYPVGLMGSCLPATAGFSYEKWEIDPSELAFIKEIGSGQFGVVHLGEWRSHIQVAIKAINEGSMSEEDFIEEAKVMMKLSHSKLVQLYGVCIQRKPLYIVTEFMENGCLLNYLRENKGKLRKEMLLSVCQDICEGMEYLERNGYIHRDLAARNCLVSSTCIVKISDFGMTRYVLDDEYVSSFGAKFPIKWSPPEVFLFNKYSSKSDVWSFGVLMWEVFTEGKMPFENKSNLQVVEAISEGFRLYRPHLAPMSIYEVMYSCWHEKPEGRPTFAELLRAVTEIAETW
Put plainly: Selectivity interaction (KinomeScan (DiscoverX)) EUB0000595a TXK. The conditions noted are these: at 10 µM.

Protein arginine N-methyltransferase 6, sequence (Q96LA8 whole entry, looked up): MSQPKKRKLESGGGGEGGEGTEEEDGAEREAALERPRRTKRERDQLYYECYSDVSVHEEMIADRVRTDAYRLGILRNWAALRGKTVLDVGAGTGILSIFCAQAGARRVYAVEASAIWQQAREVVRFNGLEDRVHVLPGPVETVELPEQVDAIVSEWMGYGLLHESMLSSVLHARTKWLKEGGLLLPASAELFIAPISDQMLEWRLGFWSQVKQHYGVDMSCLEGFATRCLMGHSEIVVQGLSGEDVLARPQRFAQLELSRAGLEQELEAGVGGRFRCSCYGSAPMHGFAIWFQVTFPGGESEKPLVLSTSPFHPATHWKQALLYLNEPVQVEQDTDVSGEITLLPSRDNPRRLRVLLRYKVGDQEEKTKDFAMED
Serine/threonine-protein kinase tousled-like 2 (Homo sapiens), sequence (Q86UE8 whole entry, looked up): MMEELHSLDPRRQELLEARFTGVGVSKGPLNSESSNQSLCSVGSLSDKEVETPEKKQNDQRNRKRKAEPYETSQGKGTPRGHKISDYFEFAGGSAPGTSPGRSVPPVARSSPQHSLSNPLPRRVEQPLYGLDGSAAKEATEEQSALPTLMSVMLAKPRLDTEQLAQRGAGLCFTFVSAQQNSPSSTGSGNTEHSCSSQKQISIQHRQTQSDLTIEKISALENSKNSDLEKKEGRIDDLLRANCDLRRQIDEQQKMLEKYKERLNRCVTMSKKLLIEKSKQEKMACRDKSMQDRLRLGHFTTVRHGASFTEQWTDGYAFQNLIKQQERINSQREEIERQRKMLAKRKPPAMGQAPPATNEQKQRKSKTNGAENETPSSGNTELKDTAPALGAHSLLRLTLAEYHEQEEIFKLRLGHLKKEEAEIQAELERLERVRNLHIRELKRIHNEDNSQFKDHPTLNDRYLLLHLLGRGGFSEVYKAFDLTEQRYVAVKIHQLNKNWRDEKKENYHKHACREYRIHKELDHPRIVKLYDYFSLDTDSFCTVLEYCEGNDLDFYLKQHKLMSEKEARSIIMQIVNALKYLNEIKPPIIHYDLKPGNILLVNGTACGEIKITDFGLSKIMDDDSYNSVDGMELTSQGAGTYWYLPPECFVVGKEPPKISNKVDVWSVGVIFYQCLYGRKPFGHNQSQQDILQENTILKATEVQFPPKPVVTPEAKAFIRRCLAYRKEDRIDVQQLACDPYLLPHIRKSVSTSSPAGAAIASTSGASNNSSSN
Ephrin type-A receptor 5 (Homo sapiens), sequence (P54756 whole entry): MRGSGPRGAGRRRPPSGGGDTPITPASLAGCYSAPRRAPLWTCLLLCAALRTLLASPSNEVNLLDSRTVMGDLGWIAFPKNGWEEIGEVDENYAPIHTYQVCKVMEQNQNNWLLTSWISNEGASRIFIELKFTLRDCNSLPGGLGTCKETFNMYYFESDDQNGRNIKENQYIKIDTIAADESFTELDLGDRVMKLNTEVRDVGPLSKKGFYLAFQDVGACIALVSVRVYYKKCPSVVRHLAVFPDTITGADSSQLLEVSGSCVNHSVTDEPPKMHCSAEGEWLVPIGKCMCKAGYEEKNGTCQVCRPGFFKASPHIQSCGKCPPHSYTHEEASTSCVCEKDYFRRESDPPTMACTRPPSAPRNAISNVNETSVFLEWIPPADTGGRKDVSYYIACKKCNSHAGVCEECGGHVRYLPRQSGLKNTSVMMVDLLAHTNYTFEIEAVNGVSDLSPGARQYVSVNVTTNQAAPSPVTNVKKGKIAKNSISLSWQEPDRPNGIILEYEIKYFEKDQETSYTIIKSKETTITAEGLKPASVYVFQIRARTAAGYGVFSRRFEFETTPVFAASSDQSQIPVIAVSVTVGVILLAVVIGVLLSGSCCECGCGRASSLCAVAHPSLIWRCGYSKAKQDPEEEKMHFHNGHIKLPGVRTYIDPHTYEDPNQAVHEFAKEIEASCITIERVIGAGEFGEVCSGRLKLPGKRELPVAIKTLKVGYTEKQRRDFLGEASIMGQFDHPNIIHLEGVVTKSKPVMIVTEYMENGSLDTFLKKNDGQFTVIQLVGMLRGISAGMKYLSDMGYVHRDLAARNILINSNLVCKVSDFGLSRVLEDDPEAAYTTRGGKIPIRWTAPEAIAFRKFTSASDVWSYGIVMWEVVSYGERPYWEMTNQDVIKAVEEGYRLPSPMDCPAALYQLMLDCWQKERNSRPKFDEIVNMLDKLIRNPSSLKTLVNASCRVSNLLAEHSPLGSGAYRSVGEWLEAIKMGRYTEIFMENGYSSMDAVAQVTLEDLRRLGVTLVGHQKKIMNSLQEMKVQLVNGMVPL
Serine/threonine-protein kinase 35 (Homo sapiens), sequence (Q8TDR2 whole entry): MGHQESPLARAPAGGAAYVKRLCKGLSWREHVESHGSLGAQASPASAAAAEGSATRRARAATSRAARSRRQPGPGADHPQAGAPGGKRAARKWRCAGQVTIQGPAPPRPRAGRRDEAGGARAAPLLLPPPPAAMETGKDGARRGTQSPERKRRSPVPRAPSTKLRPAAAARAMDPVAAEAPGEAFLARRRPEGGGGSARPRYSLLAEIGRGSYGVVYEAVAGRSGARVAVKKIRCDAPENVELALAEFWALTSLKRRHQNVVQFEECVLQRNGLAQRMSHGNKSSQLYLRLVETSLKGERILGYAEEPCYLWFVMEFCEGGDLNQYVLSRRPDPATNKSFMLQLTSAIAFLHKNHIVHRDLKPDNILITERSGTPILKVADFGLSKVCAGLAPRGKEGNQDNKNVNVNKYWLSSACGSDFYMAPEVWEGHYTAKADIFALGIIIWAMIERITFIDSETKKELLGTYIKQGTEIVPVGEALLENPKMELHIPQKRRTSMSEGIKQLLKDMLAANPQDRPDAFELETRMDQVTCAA
Ribosomal protein S6 kinase alpha-3, sequence (P51812 whole entry): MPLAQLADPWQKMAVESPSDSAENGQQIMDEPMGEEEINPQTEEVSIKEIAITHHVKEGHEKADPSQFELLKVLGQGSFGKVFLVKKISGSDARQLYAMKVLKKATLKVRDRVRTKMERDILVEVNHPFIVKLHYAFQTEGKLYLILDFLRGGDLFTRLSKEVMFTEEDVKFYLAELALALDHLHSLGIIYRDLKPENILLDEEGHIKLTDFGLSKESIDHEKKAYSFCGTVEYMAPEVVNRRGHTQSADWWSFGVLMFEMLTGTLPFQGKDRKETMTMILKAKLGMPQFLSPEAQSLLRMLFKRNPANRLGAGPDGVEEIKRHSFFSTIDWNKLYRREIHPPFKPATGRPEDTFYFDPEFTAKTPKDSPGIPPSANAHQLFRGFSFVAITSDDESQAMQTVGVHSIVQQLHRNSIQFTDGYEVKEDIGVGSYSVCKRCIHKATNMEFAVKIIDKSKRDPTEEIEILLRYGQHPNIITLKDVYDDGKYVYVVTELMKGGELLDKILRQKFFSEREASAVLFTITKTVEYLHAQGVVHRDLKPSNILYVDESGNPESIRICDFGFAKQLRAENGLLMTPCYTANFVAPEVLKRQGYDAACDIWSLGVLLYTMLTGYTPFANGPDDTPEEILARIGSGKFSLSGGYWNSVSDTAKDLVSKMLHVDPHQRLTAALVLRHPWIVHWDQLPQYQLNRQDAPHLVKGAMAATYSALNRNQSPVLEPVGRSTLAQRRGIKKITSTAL
Serine/threonine-protein kinase 16, sequence (O75716 whole entry): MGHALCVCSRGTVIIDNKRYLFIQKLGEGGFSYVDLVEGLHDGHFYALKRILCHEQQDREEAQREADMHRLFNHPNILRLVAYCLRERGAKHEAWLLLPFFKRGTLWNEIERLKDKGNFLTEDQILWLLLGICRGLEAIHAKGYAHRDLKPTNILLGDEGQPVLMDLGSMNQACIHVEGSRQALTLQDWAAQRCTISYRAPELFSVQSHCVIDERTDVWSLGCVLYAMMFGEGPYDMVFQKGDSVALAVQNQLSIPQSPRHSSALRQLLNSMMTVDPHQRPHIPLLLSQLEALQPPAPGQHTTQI
Tyrosine-protein kinase JAK1, sequence (P23458 whole entry): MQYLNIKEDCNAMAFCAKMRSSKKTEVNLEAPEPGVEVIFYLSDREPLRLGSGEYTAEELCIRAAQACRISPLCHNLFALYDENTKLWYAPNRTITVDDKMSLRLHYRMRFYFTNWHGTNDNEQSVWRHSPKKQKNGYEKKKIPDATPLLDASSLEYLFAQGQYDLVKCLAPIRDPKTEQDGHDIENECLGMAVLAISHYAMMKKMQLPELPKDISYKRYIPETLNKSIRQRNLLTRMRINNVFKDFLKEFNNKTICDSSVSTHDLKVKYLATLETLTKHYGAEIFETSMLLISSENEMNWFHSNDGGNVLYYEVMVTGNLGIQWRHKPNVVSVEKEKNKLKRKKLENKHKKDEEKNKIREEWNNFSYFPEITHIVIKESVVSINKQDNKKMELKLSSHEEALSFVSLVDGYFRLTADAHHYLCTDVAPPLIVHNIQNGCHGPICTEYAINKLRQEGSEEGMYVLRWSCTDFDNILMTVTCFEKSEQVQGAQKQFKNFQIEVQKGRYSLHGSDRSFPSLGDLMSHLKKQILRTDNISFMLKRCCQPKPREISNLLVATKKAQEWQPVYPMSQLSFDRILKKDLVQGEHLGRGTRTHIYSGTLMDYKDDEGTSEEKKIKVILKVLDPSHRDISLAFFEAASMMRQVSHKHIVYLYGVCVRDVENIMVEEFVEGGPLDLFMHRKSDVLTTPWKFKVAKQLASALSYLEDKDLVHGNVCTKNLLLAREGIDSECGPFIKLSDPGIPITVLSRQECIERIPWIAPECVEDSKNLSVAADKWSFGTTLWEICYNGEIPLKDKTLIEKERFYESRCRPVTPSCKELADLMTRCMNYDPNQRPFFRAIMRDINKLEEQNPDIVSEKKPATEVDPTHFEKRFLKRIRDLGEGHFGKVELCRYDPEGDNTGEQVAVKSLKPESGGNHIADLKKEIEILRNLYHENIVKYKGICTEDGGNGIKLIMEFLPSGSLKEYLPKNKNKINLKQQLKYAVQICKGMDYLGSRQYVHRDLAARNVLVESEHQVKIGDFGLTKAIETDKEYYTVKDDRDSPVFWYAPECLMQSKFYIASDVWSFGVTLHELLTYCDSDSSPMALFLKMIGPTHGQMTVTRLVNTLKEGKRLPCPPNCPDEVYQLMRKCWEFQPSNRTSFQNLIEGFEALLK

With `Cc1cc(C)cc([C@@H]2c3cc(C)ccc3NC(=O)CN2C(=O)c2ccc(Br)s2)c1`, the % of activity in experiment [1] (at 1 µM) came to 16.7%; in experiment [1] (at 10 µM), 7.33%.

Regarding `CNCCN1CCC(c2cc(CN(C)C(=O)c3cccc(Oc4ccccc4)c3)ccn2)CC1`, the % activity in experiment [2] is greater than 90%.

Regarding `N#Cc1cccc(-c2c[nH]c3ncnc(N4CCOCC4)c23)c1`, the % of inhibition in experiment [3] was 6%; in [4], 63%.

Consider `CC[C@@H]1[C@H](F)C(=O)N[C@@H]1COc1nccc2cc(C(N)=O)c(OC)cc12` [ZIMLOVISERTIB], for which the % of inhibition in experiment [5] is -7.3%.

For `C=CC(=O)Nc1cccc(C(=O)Nc2ccc(Nc3cc(-c4[nH]c(SC)nc4C)ccn3)cc2)c1`, the figures for the % of control in experiment [6] (at 1 µM) and in [6] (at 5 µM) were 92% and 83%, respectively.

`CCC(=O)N1CCN(c2ccc(-n3c(=O)ccc4cnc5ccc(-c6cnc7ccccc7c6)cc5c43)cc2C(F)(F)F)CC1` gave a % of control in experiment [7] of 18%.

Turning to `Cc1ccc(-c2ccc3c(ccc4sc5c(c43)NC[C@@H](C)NC5=O)n2)cn1`, in [8], the % of inhibition was 6%.

Compound `COCC(=O)NC/C=C/c1ccc2ncnc(Nc3ccc(Oc4ccc(C)nc4)c(C)c3)c2c1` [CP-724714] registered a % of control in experiment [9] of 84%.
